Biological target: human PDE10A2 (Homo sapiens (Human), UniProt Q9Y233)
Assay: PDE10 fluorescence polarization (IMAP FP) inhibition assay
Type: biochemical
Conditions: human PDE10A2 from transfected AD293 cells; FAM-labeled cAMP 50 nM; apparent inhibition constant; read-out: PDE10A Ki
Experimental: The activity of the compounds in accordance with the present invention as PDE10 inhibitors may be readily determined without undue experimentation using a fluorescence polarization (FP) methodology that is well known in the art (Huang, W., et al., J. Biomol Screen, 2002, 7: 215).
In a typical experiment the PDE10 inhibitory activity of the compounds of the present invention was determined in accordance with the following experimental method. PDE10A2 was amplified from human fetal brain cDNA (Clontech, Mountain View, Calif.) using a forward primer corresponding to nucleotides 56-77 of human PDE10A2 (Accession No. AF127480, Genbank Identifier 4894716), containing a Kozak consensus sequence, and a reverse primer corresponding to nucleotides 2406-2413 of human PDE10A2 (Accession No. AF127480, Genbank Identifier 4894716). Amplification with Easy-A polymerase (Stratagene, La Jolla, Calif.) was 95° C. for 2 minutes followed by thirty three cycles of 95° C. for 40 seconds, 55° C. for 30 seconds, and 72° C. for 2 minutes 48 seconds. Final extension was 72° C. for 7 minutes. The PCR product was TA cloned into pcDNA3.2-TOPO (Invitrogen, Carlsbad, Calif.) according to standard protocol. AD293 cells with 70-80% confluency were transiently transfected with human PDE10A2/pcDNA3.2-TOPO using Lipofectamine 2000 according to manufacturer specifications (Invitrogen, Carlsbad, Calif.). Cells were harvested 48 hours post-transfection and lysed by sonication (setting 3, 10×5 sec pulses) in a buffer containing 20 mM HEPES, 1 mM EDTA and protease inhibitor cocktail (Roche). Lysate was collected by centrifugation at 75,000×g for 20 minutes. Supernatant containing the cytoplasmic fraction was used for evaluation of PDE10A2 activity. The fluorescence polarization assay for cyclic nucleotide phosphodiesterases was performed using an IMAP® FP kit supplied by Molecular Devices, Sunnyvale, Calif. (product # R8139). IMAP® technology has been applied previously to phosphodiesterase assays (Huang, W., et al., J. Biomol Screen, 2002, 7: 215). Assays were performed at room temperature in 384-well microtiter plates with an incubation volume of 20.2 μL. Solutions of test compounds were prepared in DMSO and serially diluted with DMSO to yield 8 μL of each of 10 solutions differing by 3-fold in concentration, at 32 serial dilutions per plate. […] 0% of inhibition is determined by using DMSO (1% final concentrations).
A Labcyte Echo 555 (Labcyte, Sunnyvale, Calif.) is used to dispense 200 nL from each well of the titration plate to the 384 well assay plate. A solution of enzyme (1/1600 dilution from aliquots; sufficient to produce 20% substrate conversion) and a separate solution of FAM-labeled cAMP PDE from Molecular Devices (product # R7506), at a final concentration of 50 nM are made in the assay buffer (10 mM Tris HCl, pH 7.2, 10 mM MgCl2, 0.05% NaN3 0.01% Tween-20, and 1 mM DTT). The enzyme and the substrate are then added to the assay plates in two consecutive additions of 10 μL, and then shaken to mix. The reaction is allowed to proceed at room temperature for 30 minutes. […] The enzymatic reaction is stopped by addition of 60 μL of the binding solution to each well of the assay plates and the plates are sealed and shaken for 10 seconds. The plate was incubated at room temperature for at least one hour prior to determining the fluorescence polarization (FP). The parallel and perpendicular fluorescence of each well of the plate was measured using a Perkin Elmer EnVision™ plate reader (Waltham, Mass.).
Fluorescence polarization (mP) was calculated from the parallel (S) and perpendicular (P) fluorescence of each sample well and the analogous values for the median control well, containing only substrate (So and Po), using the following equation: Polarization(mP)=1000*(S/So−P/Po)/(S/So+P/Po).
Dose-inhibition profiles for each compound were characterized by fitting the mP data to a four-parameter equation given below.

Sequence of human PDE10A2 (Q9Y233 267-1055): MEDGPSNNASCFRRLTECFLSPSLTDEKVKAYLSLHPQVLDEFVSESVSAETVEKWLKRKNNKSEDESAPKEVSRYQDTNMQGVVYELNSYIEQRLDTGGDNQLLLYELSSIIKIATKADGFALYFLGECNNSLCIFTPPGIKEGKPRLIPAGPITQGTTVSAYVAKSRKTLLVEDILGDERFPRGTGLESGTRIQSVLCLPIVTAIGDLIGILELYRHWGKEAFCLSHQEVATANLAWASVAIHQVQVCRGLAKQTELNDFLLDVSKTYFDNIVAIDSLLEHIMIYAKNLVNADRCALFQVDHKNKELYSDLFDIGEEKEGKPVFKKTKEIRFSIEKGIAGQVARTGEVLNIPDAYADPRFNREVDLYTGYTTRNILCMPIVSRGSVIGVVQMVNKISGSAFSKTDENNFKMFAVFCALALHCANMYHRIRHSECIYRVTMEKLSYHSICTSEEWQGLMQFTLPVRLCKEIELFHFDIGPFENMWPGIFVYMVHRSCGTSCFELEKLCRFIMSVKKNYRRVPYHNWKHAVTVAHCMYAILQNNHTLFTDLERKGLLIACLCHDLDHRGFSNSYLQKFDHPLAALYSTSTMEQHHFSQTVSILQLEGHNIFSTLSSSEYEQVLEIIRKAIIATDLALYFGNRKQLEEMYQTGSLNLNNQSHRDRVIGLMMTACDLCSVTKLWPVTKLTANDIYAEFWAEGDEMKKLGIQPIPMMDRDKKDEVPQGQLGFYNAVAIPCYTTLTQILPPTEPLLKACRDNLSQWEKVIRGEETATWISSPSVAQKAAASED

For `CCc1ccccc1-c1cnc(C)nc1OC[C@H]1C[C@@H]1c1ccc(C)cn1` [Example 8], the Ki was 3.24 nM.

Work on `Cc1ncc(C2CCC3(CC2)OCCO3)c(OC[C@@H](C)Cc2ccc3ccccc3n2)n1` [Example 204, 2-((2S)-2-methyl-3-(2-methyl-5-(1,4-dioxaspiro[4.5]decan-8-yl)pyrimidin-4 yloxy)propyl)quinoline] yielded a Ki of 0.73 nM.

`Cc1ccc([C@H]2C[C@@H]2COc2nc(C)ncc2-c2c(C)cccc2C)nc1` [Example 11, 5-(2,6-dimethylphenyl)-2-methyl-4-(((1S,2S)-2-(5-methylpyridin-2-yl)cyclopropyl)methoxy)pyrimidine] gave a Ki of 4.43 nM.

With `Cc1ccc([C@H]2C[C@@H]2COc2nc(C)ncc2-c2cccc(C(C)C)c2)nc1` [Example 4, 5-(3-isopropylphenyl)-2-methyl-4-(((1S,2S)-2-(5-methylpyridin-2-yl)cyclopropyl)methoxy)pyrimidine] the Ki was 2.14 nM.

`COc1ccc([C@H]2C[C@@H]2COc2nc(C)ncc2-c2ccc(C(=O)NCCO)nc2)nc1` [Example 106, N-(2-hydroxyethyl)-5-(4-(((1S,2S)-2-(5-methoxypyridin-2-yl)cyclopropyl)methoxy)-2-methylpyrimidin-5-yl)picolinamide] gave a Ki of 0.64 nM.

`Cc1ccc([C@H]2C[C@@H]2COc2nc(C)ncc2-c2ccc3[nH]ccc3c2)nc1` [Example 48, 5-(2-methyl-4-(((1S,2S)-2-(5-methylpyridin-2-yl)cyclopropyl)methoxy)pyrimidin-5-yl)-1H-indole] gave a Ki of 3.25 nM.

Work on `CCn1nnc(-c2cnc(C)nc2OC[C@H]2C[C@@H]2c2ccc(OC)cn2)n1` [Example 236, 5-(2-ethyl-2H-tetrazol-5-yl)-4-(((1S,2S)-2-(5-methoxypyridin-2-yl)cyclopropyl)methoxy)-2-methylpyrimidine] yielded a Ki of 19.4 nM.

`Cc1ccc([C@H]2C[C@@H]2COc2nc(C)ncc2-c2cccoc2=O)nc1` [Example 49, 3-(2-methyl-4-(((1S,2S)-2-(5-methylpyridin-2-yl)cyclopropyl)methoxy)pyrimidin-5-yl)-2H-pyran-2-one] gave a Ki of 22.4 nM.

In the case of `Cc1cc(-c2cnc(C)nc2OC[C@H]2C[C@@H]2c2ccc3ccccc3n2)ccn1` [Example 153, 2-((1S,2S)-2-((2-methyl-5-(2-methylpyridin-4-yl)pyrimidin-4-yloxy)methyl)cyclopropyl)quinoline], the Ki is reported as 0.01 nM.

Compound `COc1ccc([C@H]2C[C@@H]2COc2nc(C)ncc2-c2ccc(-c3noc(CO)n3)cc2)nc1` [Example 252, (3-(4-(4-(((1S,2S)-2-(5-methoxypyridin-2-yl)cyclopropyl)methoxy)-2-methylpyrimidin-5-yl)phenyl)-1,2,4-oxadiazol-5-yl)methanol] has a Ki of 2.03 nM.

Compound `Cc1ccc([C@H]2C[C@@H]2COc2nc(C)ncc2C2CCC(=O)CC2)nc1` [Example 185, 4-(2-methyl-4-(((1S,2S)-2-(5-methylpyridin-2-yl)cyclopropyl)methoxy)pyrimidin-5-yl)cyclohexanone] has a Ki of 3.73 nM.

For `COc1ccc([C@H]2C[C@@H]2COc2nc(C)ncc2-c2ocnc2C)nc1` [Example 257, 5-(4-(((1S,2S)-2-(5-methoxypyridin-2-yl)cyclopropyl)methoxy)-2-methylpyrimidin-5-yl)-4-methyloxazole], the Ki was 0.91 nM.

In the case of `COc1ccc([C@H]2C[C@@H]2COc2nc(C)ncc2-c2ccc(-c3nnnn3C)nc2)nc1` [Example 231, 4-(((1S,2S)-2-(5-methoxypyridin-2-yl)cyclopropyl)methoxy)-2-methyl-5-(6-(1-methyl-1H-tetrazol-5-yl)pyridin-3-yl)pyrimidine], the Ki is reported as 1.78 nM.

For `CCOC(=O)c1cnc(O)cc1-c1cnc(C)nc1OC[C@H]1C[C@@H]1c1ccc(OC)cn1` [Example 110, ethyl 6-hydroxy-4-(4-(((1S,2S)-2-(5-methoxypyridin-2-yl)cyclopropyl)methoxy)-2-methylpyrimidin-5-yl)nicotinate], the Ki was 41.6 nM.

In the case of `Cc1cccc([C@H]2C[C@@H]2COc2nc(C)ncc2-c2cn(C)nc2C(C)O)n1` (stereo partly drawn) [Example 161, 1-(1-methyl-4-(2-methyl-4-(((1S,2S)-2-(6-methylpyridin-2-yl)cyclopropyl)methoxy)pyrimidin-5-yl)-1H-pyrazol-3-yl)ethanol], the Ki is reported as 2.28 nM.

Source: patent publication US9663513B2, “Pyrimidine PDE10 inhibitors” (Merck Sharp & Dohme Corp., priority 2012, dated 2017)
